System: rgRSV224
Experiment: microbe, parasite or virus in culture
Format: cell-based, RSV
Settings: for normalized data (GFP response): average across 12 replicates
Experimental: To evaluate their combined antiviral effect against RSV, in vitro combination studies were performed with Compound A, i.e. 3-({5-chloro-1-[3-(methylsulfonyl)propyl]-1H-indol-2-yl}methyl)-1-(2,2,2-trifluoroethyl)-1,3-dihydro-2H-imidazo[4,5-c]pyridin-2-one, and Compound B, i.e. (1S,2S)-2-[4-[7-cyclopropyl-5-[(1R)-1-methyl-3,4-dihydro-1H-isoquinoline-2-carbonyl]pyrazolo[1,5-a]pyrimidin-2-yl]-3-fluoro-phenyl]cyclopropanecarboxylic acid. In short, 9 concentrations of Compound A were combined with 6 or 7 concentrations of Compound B. HeLa cells were infected with rgRSV224, an engineered RSV strain that encodes for eGFP (Hallak L K, Spillmann D, Collins P L, Peeples M E. Glycosaminoglycan sulfation requirements for respiratory syncytial virus infection; Journal of Virology (2000), 74(22), 10508-13), in the presence of various concentrations of compound A and compound B individually or in combination.
Compound stock solutions were 5 mM in 100% DMSO. First, the compounds were serially diluted in 3-fold dilution series in DMSO. The concentration series were diluted 100-fold in cell culture medium to achieve a combination matrix. 10 μL of these compound solutions were transferred to black 384-well clear-bottom tissue-culture treated plates. Next, 10 μL of a […] HeLa cell suspension was added to achieve 3000 cells per well. Finally, 10 μL of diluted virus stock was added to achieve an MOI of 1. The final DMSO concentration of all wells was 0.5% DMSO. Each combination of compound concentrations was tested in 4 replicates on 3 separate plates, resulting in a total of 12 replicates. The plates were incubated for 3 days at 37° C. in a humidified atmosphere at 5% CO2. The GFP signal was measured with PerkinElmer EnVision apparatus using a 405 nm filter.
The method of Harbron (Statistics in Medicine, 2010, DOI:10.1002/sim3916) was used to assess synergy. Using the Loewe definition, two compounds are characterized as being additive, synergistic or antagonistic by:
where d1 and d2 represent the doses of the two compounds that in combination produce an effect y, and Dy,1 and Dy,2 represent the doses of the two compounds that produce the same effect, y, when administered as a monotherapy. A 3PL model (3-parameter log-logistic model) was used for the monotherapy dose-response data, where the baseline response was fixed at one.
Following Harbron's approach, the following models were fitted to the data: • “Additive”: assuming no interaction between the two compounds • “Uniform”: assuming a constant interaction index τ across all dose combinations • “Linear A”: assuming the interaction index linearly depends on the log 10 dose of compound A: τ=τ1+τ2 log 10(dA) • “Separate A”: assuming the interaction index τ takes a separate value for each dose of compound A
The latter two models were also considered for compound B: • “Linear B”: assuming the interaction index linearly τ depends on the log 10 dose of compound B: τ=τ1+τ2 log 10(dB) • “Separate B”: assuming the interaction index τ takes a separate value for each dose of compound B

Row | Structure (SMILES) | normalized data (GFP response) (A = 0, B = 4.6) | normalized data (GFP response) (A = 0, B = 14) | normalized data (GFP response) (A = 0, B = 42) | normalized data (GFP response) (A = 0, B = 125) | normalized data (GFP response) (A = 0, B = 375) | normalized data (GFP response) (A = 0, B = 1125) | normalized data (GFP response) (A = 0.19, B = 0) | normalized data (GFP response) (A = 0.57, B = 0) | normalized data (GFP response) (A = 1.7, B = 0) | normalized data (GFP response) (A = 5.1, B = 0) | normalized data (GFP response) (A = 15, B = 0) | normalized data (GFP response) (A = 46, B = 0) | normalized data (GFP response) (A = 139, B = 0) | normalized data (GFP response) (A = 417, B = 0) | normalized data (GFP response) (A = 1250, B = 0) | EC50 (human respiratory syncytial virus, HeLa, read-out: EC50 (dose at τ EC50)) [nM]
1 | C[C@@H]1c2ccccc2CCN1C(=O)c1cc(C2CC2)n2nc(-c3ccc([C@H]4C[C@@H]4C(=O)O)cc3F)cc2n1 [Compound B, (1S,2S)-2-[4-[7-cyclopropyl-5-[(1R)-1-methyl-3,4-dihydro-1H-isoquinoline-2-carbonyl]pyrazolo[1,5-a]pyrimidin-2-yl]-3-fluoro-phenyl]cyclopropanecarboxylic acid] | 1.13 | 1.04 | 0.37 | 0.07 | 0.00 | 0.00 | – | – | – | – | – | – | – | – | – | –
2 | CS(=O)(=O)CCCn1c(Cn2c(=O)n(CC(F)(F)F)c3ccncc32)cc2cc(Cl)ccc21 [Compound A, 3-({5-chloro-1-[3-(methylsulfonyl)propyl]-1H-indol-2-yl}methyl)-1-(2,2,2-trifluoroethyl)-1,3-dihydro-2H-imidazo[4,5-c]pyridin-2-one] | – | – | – | – | – | – | 1.07 | 1.05 | 0.99 | 0.74 | 0.48 | 0.29 | 0.18 | 0.08 | 0.06 | 13.1
